Results from patent publication US20020137929A1, “1 - (3-heterocyclylphenyl) isothiourea, -isourea, -guanidine and -amidine herbicidal agents” (Intellectual Property Department, BASF Aktiengesellschaft, priority 1998, published 2002).

Experiments:
[1] = system: ABUTH (Velvetleaf); experiment: Postemergence herbicidal evaluation; format: in vivo, Abutilon theophrasti; details: postemergence
Summary of the method: (§1)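 Scores (0–9) reflect plant stand, vigor, malformation, size, chlorosis and general appearance relative to control, read 4 to 5 weeks after treatment and averaged where tests were repeated. Application: about 0.0156–0.500 kg/ha sprayed at 40 psi onto two-week seedlings.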

[2] = system: CHEAL (Lambsquarters, Common); experiment: Postemergence herbicidal evaluation; format: in vivo, Chenopodium album; details: postemergence
Summary of the method: as §1

[3] = system: IPOHE (Morningglory, Ivyleaf); experiment: Postemergence herbicidal evaluation; format: in vivo, Ipomoea hederacea; details: postemergence
Summary of the method: as §1

[4] = system: ECHCG (Barnyardgrass); experiment: Postemergence herbicidal evaluation; format: in vivo, Echinochloa crus-galli; details: postemergence
Summary of the method: as §1

[5] = system: SETVI (Foxtail, Green); experiment: Postemergence herbicidal evaluation; format: in vivo, Setaria viridis; details: postemergence
Summary of the method: as §1

[6] = system: ORYSAT (Rice, Tebonnet); experiment: Postemergence herbicidal evaluation; format: in vivo, Oryza sativa, (L.) Tebonnet; details: postemergence
Summary of the method: as §1

[7] = system: ZEAMX (Corn, Field); experiment: Postemergence herbicidal evaluation; format: in vivo, Zea mays; details: postemergence
Summary of the method: as §1

[8] = system: ABUTH (Velvetleaf); experiment: Preemergence herbicidal evaluation; format: in vivo, Abutilon theophrasti; details: preemergence, rated 4-5 weeks after treatment, 0-9 scale
Summary of the method: (§2)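 Preemergence soil application of compound, sprayed in aqueous acetone at rates equivalent to about 0.0156 to 0.500 kg per hectare onto freshly sown cups. Plant response was judged by eye on a 0-9 scale four to five weeks later.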

[9] = system: CASOB (Sicklepod); experiment: Preemergence herbicidal evaluation; format: in vivo, Cassia obtusifolia; details: preemergence, rated 4-5 weeks after treatment, 0-9 scale
Summary of the method: as §2

[10] = system: CHEAL (Lambsquarters, Common); experiment: Preemergence herbicidal evaluation; format: in vivo, Chenopodium album; details: preemergence, rated 4-5 weeks after treatment, 0-9 scale
Summary of the method: as §2

[11] = system: IPOHE (Morningglory, Ivyleaf); experiment: Preemergence herbicidal evaluation; format: in vivo, Ipomoea hederacea; details: preemergence, rated 4-5 weeks after treatment, 0-9 scale
Summary of the method: as §2

[12] = system: ECHCG (Barnyardgrass); experiment: Preemergence herbicidal evaluation; format: in vivo, Echinochloa crus-galli; details: preemergence, rated 4-5 weeks after treatment, 0-9 scale
Summary of the method: as §2

[13] = system: GLXMAW (Soybean, Williams); experiment: Preemergence herbicidal evaluation; format: in vivo, Glycine max, (L.) Merr. cv Williams; details: preemergence, rated 4-5 weeks after treatment, 0-9 scale
Summary of the method: as §2

[14] = system: TRZAWR (Wheat, Winter, cv Riband); experiment: Preemergence herbicidal evaluation; format: in vivo, Triticum aestivum; details: preemergence, rated 4-5 weeks after treatment, 0-9 scale
Summary of the method: as §2

[15] = system: ZEAMX (Corn, Field); experiment: Preemergence herbicidal evaluation; format: in vivo, Zea mays; details: preemergence, rated 4-5 weeks after treatment, 0-9 scale
Summary of the method: as §2

[16] = system: CYPIR (Rice Flatsedge); experiment: Postemergence weed control under flooded paddy conditions; format: in vivo, Cyperus iria; details: postemergence weeds, rated 3 to 4 weeks after treatment
Summary of the method: (§3)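 Weeds 3 to 5 cm tall and rice seedlings at the 1.5 to 2.5 leaf stage were flooded, with water held 1.5 to 3 cm above the soil. Compounds in 50/50 v/v aqueous/acetone went into the flood water at about 0.0313 to 0.500 kg/ha. Visual 0-9 ratings versus control were made 3 to 4 weeks later.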

[17] = system: CYPSE (Flatsedge); experiment: as above; format: in vivo, Cyperus serotinus; details: postemergence weeds, rated 3 to 4 weeks after treatment
Summary of the method: as §3

C=CCN1C(=O)C(CC(=O)OCCF)SC1=Nc1cc(-n2c(=O)cc(C(F)(F)F)n(C)c2=O)c(F)cc1Cl (stereo not drawn) [Compound 86, 2-Fluoroethyl 3-allyl-2-{{2-chloro-5-[3,6-dihydro-3-methyl-2,6-dioxo-4-(trifluoromethyl)-1(2H)-pyrimidinyl]-4-fluorophenyl}imino}-4-oxo-5-thiazolidineacetate]
ABUTH herbicidal rating ([1]; rate 0.0156 kg/ha): 9.0
ABUTH herbicidal rating ([1]; rate 0.0313 kg/ha): 9.0
ABUTH herbicidal rating ([1]; rate 0.0625 kg/ha): 9.0
ABUTH herbicidal rating ([1]; rate 0.1250 kg/ha): 9.0
CHEAL herbicidal rating ([2]; rate 0.0156 kg/ha): 9.0
CHEAL herbicidal rating ([2]; rate 0.0313 kg/ha): 9.0
CHEAL herbicidal rating ([2]; rate 0.0625 kg/ha): 9.0
CHEAL herbicidal rating ([2]; rate 0.1250 kg/ha): 9.0
IPOHE herbicidal rating ([3]; rate 0.0156 kg/ha): 9.0
IPOHE herbicidal rating ([3]; rate 0.0313 kg/ha): 9.0
IPOHE herbicidal rating ([3]; rate 0.0625 kg/ha): 9.0
IPOHE herbicidal rating ([3]; rate 0.1250 kg/ha): 9.0
ECHCG herbicidal rating ([4]; rate 0.0156 kg/ha): 3.0
ECHCG herbicidal rating ([4]; rate 0.0313 kg/ha): 9.0
ECHCG herbicidal rating ([4]; rate 0.0625 kg/ha): 9.0
ECHCG herbicidal rating ([4]; rate 0.1250 kg/ha): 9.0
SETVI herbicidal rating ([5]; rate 0.0156 kg/ha): 8.0
SETVI herbicidal rating ([5]; rate 0.0313 kg/ha): 9.0
SETVI herbicidal rating ([5]; rate 0.0625 kg/ha): 9.0
SETVI herbicidal rating ([5]; rate 0.1250 kg/ha): 9.0
ORYSAT herbicidal rating ([6]; rate 0.0156 kg/ha): 3.0
ORYSAT herbicidal rating ([6]; rate 0.0313 kg/ha): 7.5
ORYSAT herbicidal rating ([6]; rate 0.0625 kg/ha): 7.5
ORYSAT herbicidal rating ([6]; rate 0.1250 kg/ha): 8.5
ZEAMX herbicidal rating ([7]; rate 0.0156 kg/ha): 7.5
ZEAMX herbicidal rating ([7]; rate 0.0313 kg/ha): 8.0
ZEAMX herbicidal rating ([7]; rate 0.0625 kg/ha): 8.5
ZEAMX herbicidal rating ([7]; rate 0.1250 kg/ha): 9.0
ABUTH rating ([8]; 0.0156 kg/ha): 9.0
ABUTH rating ([8]; 0.0313 kg/ha): 9.0
ABUTH rating ([8]; 0.0625 kg/ha): 9.0
ABUTH rating ([8]; 0.1250 kg/ha): 9.0
ABUTH rating ([8]; 0.2500 kg/ha): 9.0
ABUTH rating ([8]; 0.5000 kg/ha): 9.0
CASOB rating ([9]; 0.0156 kg/ha): 0.0
CASOB rating ([9]; 0.0313 kg/ha): 0.0
CASOB rating ([9]; 0.0625 kg/ha): 0.0
CASOB rating ([9]; 0.1250 kg/ha): 0.0
CASOB rating ([9]; 0.2500 kg/ha): 0.0
CASOB rating ([9]; 0.5000 kg/ha): 3.0
CHEAL rating ([10]; 0.0156 kg/ha): 4.0
CHEAL rating ([10]; 0.0313 kg/ha): 4.0
CHEAL rating ([10]; 0.0625 kg/ha): 9.0
CHEAL rating ([10]; 0.1250 kg/ha): 9.0
CHEAL rating ([10]; 0.2500 kg/ha): 9.0
CHEAL rating ([10]; 0.5000 kg/ha): 9.0
IPOHE rating ([11]; 0.0156 kg/ha): 0.0
IPOHE rating ([11]; 0.0313 kg/ha): 0.0
IPOHE rating ([11]; 0.0625 kg/ha): 8.0
IPOHE rating ([11]; 0.1250 kg/ha): 9.0
IPOHE rating ([11]; 0.2500 kg/ha): 9.0
IPOHE rating ([11]; 0.5000 kg/ha): 9.0
ECHCG rating ([12]; 0.0156 kg/ha): 0.0
ECHCG rating ([12]; 0.0313 kg/ha): 0.0
ECHCG rating ([12]; 0.0625 kg/ha): 0.0
ECHCG rating ([12]; 0.1250 kg/ha): 0.0
ECHCG rating ([12]; 0.2500 kg/ha): 0.0
ECHCG rating ([12]; 0.5000 kg/ha): 4.0
GLXMAW rating ([13]; 0.0156 kg/ha): 0.0
GLXMAW rating ([13]; 0.0313 kg/ha): 0.0
GLXMAW rating ([13]; 0.0625 kg/ha): 0.0
GLXMAW rating ([13]; 0.1250 kg/ha): 0.0
GLXMAW rating ([13]; 0.2500 kg/ha): 4.0
GLXMAW rating ([13]; 0.5000 kg/ha): 8.0
TRZAWR rating ([14]; 0.0156 kg/ha): 0.0
TRZAWR rating ([14]; 0.0313 kg/ha): 0.0
TRZAWR rating ([14]; 0.0625 kg/ha): 0.0
TRZAWR rating ([14]; 0.1250 kg/ha): 0.0
TRZAWR rating ([14]; 0.2500 kg/ha): 2.0
TRZAWR rating ([14]; 0.5000 kg/ha): 6.0
ZEAMX rating ([15]; 0.0156 kg/ha): 0.0
ZEAMX rating ([15]; 0.0313 kg/ha): 0.0
ZEAMX rating ([15]; 0.0625 kg/ha): 0.0
ZEAMX rating ([15]; 0.1250 kg/ha): 0.0
ZEAMX rating ([15]; 0.2500 kg/ha): 4.0
ZEAMX rating ([15]; 0.5000 kg/ha): 9.0
Herbicidal rating CYPIR ([16]; Rate 0.0313 kg/ha): 3.0
Herbicidal rating CYPIR ([16]; Rate 0.0625 kg/ha): 7.0
Herbicidal rating CYPIR ([16]; Rate 0.1250 kg/ha): 8.0
Herbicidal rating CYPIR ([16]; Rate 0.2500 kg/ha): 9.0
Herbicidal rating CYPSE ([17]; Rate 0.0313 kg/ha): 0.0
Herbicidal rating CYPSE ([17]; Rate 0.0625 kg/ha): 0.0
Herbicidal rating CYPSE ([17]; Rate 0.1250 kg/ha): 3.0
Herbicidal rating CYPSE ([17]; Rate 0.2500 kg/ha): 9.0
